Experimental data: ChEMBL document CHEMBL1158737, “The psammaplysenes, specific inhibitors of FOXO1a nuclear export” (J Nat Prod, 2005)
Activity calls are given as the source filed them. The rule behind the calls is not given here.

Target: Forkhead box protein O1 (Homo sapiens) (UniProt Q12778)
Test: Inhibition of FOXO1a nuclear export in PTEN-deficient cells
Format: cell-based

Chain of Forkhead box protein O1 (Homo sapiens) (Q12778 whole entry): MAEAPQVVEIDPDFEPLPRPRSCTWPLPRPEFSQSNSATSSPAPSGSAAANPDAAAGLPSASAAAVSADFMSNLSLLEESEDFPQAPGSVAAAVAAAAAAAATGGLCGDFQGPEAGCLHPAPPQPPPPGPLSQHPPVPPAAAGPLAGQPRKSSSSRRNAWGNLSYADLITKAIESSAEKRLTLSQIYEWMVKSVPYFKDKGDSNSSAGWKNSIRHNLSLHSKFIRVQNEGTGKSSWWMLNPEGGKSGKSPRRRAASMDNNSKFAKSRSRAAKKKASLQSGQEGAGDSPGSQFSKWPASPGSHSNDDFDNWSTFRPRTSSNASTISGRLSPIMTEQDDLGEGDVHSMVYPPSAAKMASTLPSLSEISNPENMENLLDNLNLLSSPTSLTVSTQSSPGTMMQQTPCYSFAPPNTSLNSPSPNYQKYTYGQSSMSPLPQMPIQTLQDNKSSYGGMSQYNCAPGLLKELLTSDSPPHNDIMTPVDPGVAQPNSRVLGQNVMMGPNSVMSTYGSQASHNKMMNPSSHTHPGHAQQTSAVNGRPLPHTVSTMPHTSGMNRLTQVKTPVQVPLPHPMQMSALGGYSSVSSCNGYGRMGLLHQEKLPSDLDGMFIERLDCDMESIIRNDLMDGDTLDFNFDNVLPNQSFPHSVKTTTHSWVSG

CNCCCOc1c(Br)cc(CCNC(=O)/C(Cc2ccc(OC)c(Br)c2)=N/O)cc1Br
Activity: inactive
